Measured values published in patent US11254668B2, “Pyrazolo[1,5-A]pyrazin-4-yl and related derivatives” (Pfizer Inc., priority 2017, dated 2022).

Columns and labels:
Format in all cases: biochemical
JAK1 = JAK1 (Homo sapiens (Human), UniProt P23458); assay: JAK Caliper Enzyme Assay at 1 mM ATP, JAK1
How it was run: (§1)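 Recombinant human kinase domains phosphorylated a fluorescent synthetic peptide at room temperature, with enzyme level and time tuned to 20% to 30% conversion; EDTA stop buffer ended reactions. Mobility-shift separation gave percent product from peak heights, normalised to DMSO and positive controls, and IC50s came from concentration–effect curves.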

JAK2 = JAK2 (Homo sapiens (Human), UniProt O60674); assay: JAK Caliper Enzyme Assay at 1 mM ATP, JAK2
How it was run: (§2)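 Inhibition is measured as reduced phosphorylation of a synthetic peptide by the recombinant human kinase domain at 1 mM ATP. Conditions give 20–30% conversion at room temperature before EDTA quench, and on-chip separation of labelled substrate and product yields percent conversion for dose–response plotting.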

JAK3 = JAK3 (Homo sapiens (Human), UniProt P52333); assay: JAK Caliper Enzyme Assay at 1 mM ATP, JAK3
How it was run: as §1

TYK2 = TYK2 (Homo sapiens (Human), UniProt P29597); assay: JAK Caliper Enzyme Assay at 1 mM ATP, TYK2
How it was run: as §2

JAK2, sequence (O60674 849-1124): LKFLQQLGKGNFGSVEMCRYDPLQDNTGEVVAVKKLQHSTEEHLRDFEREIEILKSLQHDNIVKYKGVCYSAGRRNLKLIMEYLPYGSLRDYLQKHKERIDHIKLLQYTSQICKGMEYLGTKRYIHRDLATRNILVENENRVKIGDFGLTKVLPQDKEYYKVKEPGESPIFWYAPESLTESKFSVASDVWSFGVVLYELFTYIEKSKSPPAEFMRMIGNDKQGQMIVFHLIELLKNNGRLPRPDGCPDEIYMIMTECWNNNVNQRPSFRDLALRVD
JAK1, sequence (P23458 875-1153): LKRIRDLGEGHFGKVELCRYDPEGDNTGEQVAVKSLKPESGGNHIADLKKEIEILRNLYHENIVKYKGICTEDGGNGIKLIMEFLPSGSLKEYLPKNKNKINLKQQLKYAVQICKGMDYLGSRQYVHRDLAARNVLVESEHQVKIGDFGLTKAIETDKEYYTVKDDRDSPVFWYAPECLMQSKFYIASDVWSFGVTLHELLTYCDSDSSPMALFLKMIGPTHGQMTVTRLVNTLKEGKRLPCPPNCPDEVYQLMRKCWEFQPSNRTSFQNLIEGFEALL
JAK3, sequence (P52333 822-1111): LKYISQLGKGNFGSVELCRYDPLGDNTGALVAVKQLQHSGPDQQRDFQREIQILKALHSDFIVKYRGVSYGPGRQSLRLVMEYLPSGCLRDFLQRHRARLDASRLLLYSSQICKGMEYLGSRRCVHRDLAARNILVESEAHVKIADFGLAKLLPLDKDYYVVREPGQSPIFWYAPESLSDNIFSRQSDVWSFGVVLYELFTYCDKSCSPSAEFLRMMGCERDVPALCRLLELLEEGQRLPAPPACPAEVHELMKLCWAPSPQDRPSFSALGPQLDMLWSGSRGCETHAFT
TYK2, sequence (P29597 897-1176): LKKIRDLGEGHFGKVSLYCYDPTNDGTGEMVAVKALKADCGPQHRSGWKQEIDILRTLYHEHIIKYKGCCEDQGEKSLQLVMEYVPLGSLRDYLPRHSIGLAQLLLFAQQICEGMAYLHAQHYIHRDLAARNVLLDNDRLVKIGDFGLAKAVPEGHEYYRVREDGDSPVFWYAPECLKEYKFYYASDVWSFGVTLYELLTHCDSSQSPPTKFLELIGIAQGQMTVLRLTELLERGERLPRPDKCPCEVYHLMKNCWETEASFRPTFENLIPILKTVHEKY

| SMILES | IC50 (JAK1) | IC50 (JAK2) | IC50 (JAK3) | IC50 (TYK2) |
| --- | --- | --- | --- | --- |
| CS(=O)(=O)N1CC(CC#N)(n2cc(-c3cc(-c4cc[nH]n4)cc4ncccc34)cn2)C1 [Example 288, [1-(methylsulfonyl)-3-{4-[7-(1H-pyrazol-3-yl)quinolin-5-yl]-1H-pyrazol-1-yl}azetidin-3-yl]acetonitrile] | 796 nM | 336 nM | > 10000 nM | 112 nM |
| CS(=O)(=O)N1CC(CC#N)(n2cc(-c3cc(-c4cn[nH]c4)cc4ncccc34)cn2)C1 [Example 289, [1-(methylsulfonyl)-3-{4-[7-(1H-pyrazol-4-yl)quinolin-5-yl]-1H-pyrazol-1-yl}azetidin-3-yl]acetonitrile] | 1530 nM | 525 nM | > 10000 nM | 197 nM |
| N#CC[C@]1(n2cc(-c3cc(-c4cn[nH]c4N)cc4ncccc34)cn2)C[C@H](C#N)C1 [Example 290, trans-3-{4-[7-(5-amino-1H-pyrazol-4-yl)quinolin-5-yl]-1H-pyrazol-1-yl}-3-(cyanomethyl)cyclobutanecarbonitrile] | 2960 nM | 1750 nM | > 10000 nM | 236 nM |
| CO[C@H]1C[C@](CC#N)(n2cc(-c3cc(-c4c[nH]nc4N)cc4ncccc34)cn2)C1 [Example 291, (trans-1-{4-[7-(3-amino-1H-pyrazol-4-yl)quinolin-5-yl]-1H-pyrazol-1-yl}-3-methoxycyclobutyl)acetonitrile] | 8820 nM | 3740 nM | > 10000 nM | 343 nM |
| Cn1cc(-c2cc(-c3cnn(C4(CC#N)CN(CC#N)C4)c3)c3cccnc3c2)cn1 [Example 292, 2,2′-(3-{4-[7-(1-methyl-1H-pyrazol-4-yl)quinolin-5-yl]-1H-pyrazol-1-yl}azetidine-1,3-diyl)diacetonitrile] | 653 nM | 71 nM | > 10000 nM | 36 nM |
| Cc1cc(-c2cc(-c3cc[nH]n3)cc3ncccc23)nn1C1(CC#N)CN(S(C)(=O)=O)C1 [Example 293, [3-{5-methyl-3-[7-(1H-pyrazol-3-yl)quinolin-5-yl]-1H-pyrazol-1-yl}-1-(methylsulfonyl)azetidin-3-yl]acetonitrile] | 8190 nM | 2980 nM | > 10000 nM | 81 nM |
| Cn1cc(-c2cc(-c3cn(C4(CC#N)CN(S(C)(=O)=O)C4)nn3)c3cccnc3c2)cn1 [Example 294, [3-{4-[7-(1-methyl-1H-pyrazol-4-yl)quinolin-5-yl]-1H-1,2,3-triazol-1-yl}-1-(methylsulfonyl)azetidin-3-yl]acetonitrile] | 1340 nM | 151 nM | > 10000 nM | 267 nM |
| CS(=O)(=O)N1CC(CC#N)(n2cc(-c3cc(-c4ccc(=O)[nH]c4)cc4ncccc34)nn2)C1 [Example 295, [1-(methylsulfonyl)-3-{4-[7-(6-oxo-1,6-dihydropyridin-3-yl)quinolin-5-yl]-1H-1,2,3-triazol-1-yl}azetidin-3-yl]acetonitrile] | 7720 nM | 2580 nM | > 10000 nM | 155 nM |
| N#CCC1(n2ncc(-c3cc(-c4cc[nH]n4)cc4ncccc34)n2)CN(CC2(F)CC2)C1 [Example 297] | 4590 nM | 2470 nM | > 10000 nM | 315 nM |
| CO[C@H]1C[C@@](CC#N)(n2ncc(-c3cc(-c4cc[nH]n4)cc4ncccc34)n2)C1 [Example 304, (cis-3-methoxy-1-{4-[7-(1H-pyrazol-3-yl)quinolin-5-yl]-2H-1,2,3-triazol-2-yl}cyclobutyl)acetonitrile] | 2300 nM | 788 nM | > 10000 nM | 36 nM |
| CO[C@H]1C[C@](CC#N)(n2ncc(-c3cc(-c4cc[nH]n4)cc4ncccc34)n2)C1 [Example 305, (trans-3-methoxy-1-{4-[7-(1H-pyrazol-3-yl)quinolin-5-yl]-2H-1,2,3-triazol-2-yl}cyclobutyl)acetonitrile] | 2560 nM | 1050 nM | > 10000 nM | 35 nM |
| N#CC[C@]1(n2ncc(-c3cc(-c4cc(CO)[nH]n4)cc4ncccc34)n2)C[C@H](C#N)C1 [Example 308, trans-3-(cyanomethyl)-3-(4-{7-[5-(hydroxymethyl)-1H-pyrazol-3-yl]quinolin-5-yl}-2H-1,2,3-triazol-2-yl)cyclobutanecarbonitrile] | 719 nM | 131 nM | > 10000 nM | 18 nM |
| Cn1nc(-c2cc(-c3cnn([C@]4(CC#N)C[C@@H](C#N)C4)n3)c3cccnc3c2)cc1CO [Example 309, trans-3-(cyanomethyl)-3-(4-{7-[5-(hydroxymethyl)-1-methyl-1H-pyrazol-3-yl]quinolin-5-yl}-2H-1,2,3-triazol-2-yl)cyclobutanecarbonitrile] | 1880 nM | 163 nM | > 10000 nM | 29 nM |
| Cn1nccc1-c1cc(-c2cnn(C3(CC#N)CN(S(C)(=O)=O)C3)n2)c2cccnc2c1 [Example 310, [3-{4-[7-(1-methyl-1H-pyrazol-5-yl)quinolin-5-yl]-2H-1,2,3-triazol-2-yl}-1-(methylsulfonyl)azetidin-3-yl]acetonitrile] | > 10000 nM | > 10000 nM | > 10000 nM | 725 nM |
| Cn1ccc(-c2cc(-c3cnn(C4(CC#N)CN(S(C)(=O)=O)C4)n3)c3cccnc3c2)n1 [Example 311, [3-{4-[7-(1-methyl-1H-pyrazol-3-yl)quinolin-5-yl]-2H-1,2,3-triazol-2-yl}-1-(methylsulfonyl)azetidin-3-yl]acetonitrile] | 2260 nM | 287 nM | > 10000 nM | 25 nM |
| Cn1ccc(-c2cc(-c3cnn([C@]4(CC#N)C[C@@H](C#N)C4)n3)c3cccnc3c2)n1 [Example 312, trans-3-(cyanomethyl)-3-{4-[7-(1-methyl-1H-pyrazol-3-yl)quinolin-5-yl]-2H-1,2,3-triazol-2-yl}cyclobutanecarbonitrile] | 1640 nM | 246 nM | > 10000 nM | 31 nM |
| CS(=O)(=O)N1CC(CC#N)(n2ncc(-c3cc(-c4cn[nH]c4)cc4ncccc34)n2)C1 [Example 314, [1-(methylsulfonyl)-3-{4-[7-(1H-pyrazol-4-yl)quinolin-5-yl]-2H-1,2,3-triazol-2-yl}azetidin-3-yl]acetonitrile] | 1150 nM | 390 nM | > 10000 nM | 32 nM |

Molecules with a lower IC50 (JAK1), results first:

| IC50 (JAK1) | IC50 (JAK2) | IC50 (JAK3) | IC50 (TYK2) | SMILES |
| --- | --- | --- | --- | --- |
| 534 nM | 598 nM | > 10000 nM | 41 nM | N#CCC1(n2ncc(-c3cc(-c4cc[nH]n4)cc4ncccc34)n2)CN(CC(F)(F)F)C1 [Example 296, [3-{4-[7-(1H-pyrazol-3-yl)quinolin-5-yl]-2H-1,2,3-triazol-2-yl}-1-(2,2,2-trifluoroethyl)azetidin-3-yl]acetonitrile] |
| 280 nM | 252 nM | > 10000 nM | 10 nM | N#CCC1(n2ncc(-c3cc(-c4cc[nH]n4)cc4ncccc34)n2)CN(S(=O)(=O)C2CC2)C1 [Example 299, [1-(cyclopropylsulfonyl)-3-{4-[7-(1H-pyrazol-3-yl)quinolin-5-yl]-2H-1,2,3-triazol-2-yl}azetidin-3-yl]acetonitrile] |
| 338 nM | 195 nM | > 10000 nM | 17 nM | N#CCC1(n2ncc(-c3cc(-c4ccn[nH]4)cc4ncccc34)n2)CN(S(=O)(=O)C2COC2)C1 [Example 301, [1-(oxetan-3-ylsulfonyl)-3-{4-[7-(1H-pyrazol-5-yl)quinolin-5-yl]-2H-1,2,3-triazol-2-yl}azetidin-3-yl]acetonitrile] |
| 436 nM | 173 nM | > 10000 nM | 20 nM | N#CC[C@]1(n2ncc(-c3cc(-c4cc[nH]n4)cc4ncccc34)n2)C[C@H](C#N)C1 [Example 302, trans-3-(cyanomethyl)-3-{4-[7-(1H-pyrazol-3-yl)quinolin-5-yl]-2H-1,2,3-triazol-2-yl}cyclobutanecarbonitrile] |
| 81 nM | 29 nM | 3100 nM | 5 nM | N#CC[C@]1(n2ncc(-c3cc(-c4cc[nH]n4)cc4ncccc34)n2)C[C@@H](C#N)C1 [Example 303, cis-3-(cyanomethyl)-3-{4-[7-(1H-pyrazol-3-yl)quinolin-5-yl]-2H-1,2,3-triazol-2-yl}cyclobutanecarbonitrile] |
| 255 nM | 174 nM | 9160 nM | 14 nM | N#CCC1(n2ncc(-c3cc(-c4cc(N)[nH]n4)cc4ncccc34)n2)CC(C#N)C1 (stereo not drawn) [Example 306, trans-3-{4-[7-(5-amino-1H-pyrazol-3-yl)quinolin-5-yl]-2H-1,2,3-triazol-2-yl}-3-(cyanomethyl)cyclobutanecarbonitrile] |
| 49 nM | 30 nM | 1930 nM | 7 nM | N#CC[C@]1(n2ncc(-c3cc(-c4cc(N)[nH]n4)cc4ncccc34)n2)C[C@@H](C#N)C1 [Example 307, cis-3-{4-[7-(5-amino-1H-pyrazol-3-yl)quinolin-5-yl]-2H-1,2,3-triazol-2-yl}-3-(cyanomethyl)cyclobutanecarbonitrile] |
| 486 nM | 79 nM | 5470 nM | 25 nM | Cn1ccc(-c2cc(-c3cnn([C@]4(CC#N)C[C@H](C#N)C4)n3)c3cccnc3c2)n1 [Example 313, cis-3-(cyanomethyl)-3-{4-[7-(1-methyl-1H-pyrazol-3-yl)quinolin-5-yl]-2H-1,2,3-triazol-2-yl}cyclobutanecarbonitrile] |
